Tests used:
Format in all cases: in vivo
Spring Wheat “Freya” = experiment: Test 1B glasshouse assay, post-emergence herbicidal activity against cereal crops
[1] = test system: Alopecurus myosuroides (ALOMY); experiment: Test 1B glasshouse assay, post-emergence herbicidal activity against grassy weeds; settings: 14 DAA
Method in brief: (§1)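 Herbicide applied post-emergence at rates such as 60 g/ha (±50 g/ha cloquintocet-mexyl) or 90 and 120 g/ha (with safener), rates varying per compound. Plants kept at 22/16 °C, watered twice daily; percentage phytotoxicity scored visually after 14 days.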

Poa annua (POAAN) = experiment: as above; settings: 14 DAA
Method in brief: as §1

Avena fatua (AVEFA) [2] = experiment: as above; settings: 14 DAA
Method in brief: as §1

[3] = test system: Lolium multiflorum (LOLMU); experiment: as above; settings: 14 DAA
Method in brief: as §1

Setaria viridis (SETVI) = experiment: as above; settings: 14 DAA
Method in brief: as §1

Winter Wheat “Hereward” = experiment: Test 1B glasshouse assay, post-emergence herbicidal activity against cereal crops
Method in brief: (§2)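 Visual percentage damage (100% = total, 0% = none) read 14 days after application, averaged over two replicates. Plants grown 14 days at 22/16 °C day/night before post-emergence spraying of unformulated compound (IF50/acetone, 0.5% v/v Adigor). Rates usually 60–120 g/ha; cloquintocet-mexyl 50 g/ha co-applied where stated.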

[4] = test system: Spring Barley “Harrington”; experiment: as above
Method in brief: as §2

Winter Barley “Suzuka” = experiment: as above
Method in brief: as §2

[5] = test system: Echinochloa crus-galli (ECHCG); experiment: Test 1A glasshouse assay, post-emergence herbicidal activity; settings: Echinochloa crus-galli, 312 h, application rate 250 g/ha, 13 days after application, visual (100%=total damage; 0%=no damage), read-out: Post-emergence Herbicidal Activity (% Phytotoxicity) ECHCG
Method in brief: (§3)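 Post-emergence spray at 8 d after sowing; vehicle acetone/water 50:50 + 0.5% Tween 20. Glasshouse 24/16 °C, 14 h light, 65% RH, watered 2×/day. Visual phytotoxicity (%) at 13 DAA.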

Lolium perenne (LOLPE) [6] = experiment: as above; settings: Lolium perenne, 312 h, application rate 250 g/ha, 13 days after application, visual (100%=total damage; 0%=no damage), read-out: Post-emergence Herbicidal Activity (% Phytotoxicity) LOLPE
Method in brief: as §3

[7] = test system: Alopecurus myosuroides (ALOMY); experiment: as above; settings: Alopecurus myosuroides, 312 h, application rate 250 g/ha, 13 days after application, visual (100%=total damage; 0%=no damage), read-out: Post-emergence Herbicidal Activity (% Phytotoxicity) ALOMY
Method in brief: as §3

Avena fatua (AVEFA) [8] = experiment: as above; settings: Avena fatua, 312 h, application rate 250 g/ha, 13 days after application, visual (100%=total damage; 0%=no damage), read-out: Post-emergence Herbicidal Activity (% Phytotoxicity) AVEFA
Method in brief: as §3

[9] = test system: Echinochloa crus-galli (ECHCG); experiment: Test 1A glasshouse assay, pre-emergence herbicidal activity; settings: 312 h, 250 g/ha, 13 days after application, read-out: Pre-emergence herbicidal activity (% phytotoxicity) ECHCG
Description: (§4) Seeds of a variety of test species were sown in standard soil in pots. After cultivation for one day (pre-emergence) or after 8 days cultivation (post-emergence) under controlled conditions in a glasshouse (at 24/16° C., day/night; 14 hours light; 65% humidity), the plants were sprayed with an aqueous spray solution derived from the formulation of the technical active ingredient in acetone/water (50:50) solution containing 0.5% Tween 20 (polyoxyethelyene sorbitan monolaurate, CAS RN 9005-64-5). The test plants were then grown under controlled conditions in a glasshouse (at 24/16° C., day/night; 14 hours light; 65% humidity) and watered twice daily. 13 days after application of the test herbicide, for pre- and post-emergence, the test was evaluated visually for percentage phytotoxicity to the plant (where 100%=total damage to plant; 0%=no damage to plant).
(§5) Test plants: Lolium perenne (LOLPE), Alopecurus myosuroides (ALOMY), Echinochloa crus-galli (ECHCG), and Avena fatua (AVEFA); these are all grassy monocotyledonous weeds.

Lolium perenne (LOLPE) [10] = experiment: as above; settings: 312 h, 250 g/ha, 13 days after application, read-out: Pre-emergence herbicidal activity (% phytotoxicity) LOLPE
Description: as §4, §5

[11] = test system: Alopecurus myosuroides (ALOMY); experiment: as above; settings: 312 h, 250 g/ha, 13 days after application, read-out: Pre-emergence herbicidal activity (% phytotoxicity) ALOMY
Description: as §4, §5

Avena fatua (AVEFA) [12] = experiment: as above; settings: 312 h, 250 g/ha, 13 days after application, read-out: Pre-emergence herbicidal activity (% phytotoxicity) AVEFA
Description: as §4, §5

[13] = herbicide 30 g/ha, cloquintocet-mexyl 50 g/ha
[14] = herbicide 60 g/ha, cloquintocet-mexyl 0 g/ha
[15] = herbicide 60 g/ha, cloquintocet-mexyl 50 g/ha
[16] = 30 g/ha herbicide, 50 g/ha cloquintocet-mexyl
[17] = 60 g/ha herbicide, 0 g/ha cloquintocet-mexyl
[18] = 60 g/ha herbicide, 50 g/ha cloquintocet-mexyl

Structure (SMILES): Cc1cc(C)c(C2C(=O)CC(CCNC(=O)c3cc(Cl)ccn3)C2=O)c(C)c1 (racemic) [Compound A23]
- Percentage Phytotoxicity Spring Wheat “Freya” (Spring Wheat “Freya”; [13]): 5%
- Percentage Phytotoxicity Spring Wheat “Freya” (Spring Wheat “Freya”; [14]): 63%
- Percentage Phytotoxicity Spring Wheat “Freya” (Spring Wheat “Freya”; [15]): 7%
- Post-emergence herbicidal activity, percentage phytotoxicity, ALOMY [1, 16]: 28%
- Post-emergence herbicidal activity, percentage phytotoxicity, ALOMY [1, 17]: 75%
- Post-emergence herbicidal activity, percentage phytotoxicity, ALOMY [1, 18]: 78%
- Post-emergence herbicidal activity, percentage phytotoxicity, POAAN (Poa annua (POAAN); [16]): 0%
- Post-emergence herbicidal activity, percentage phytotoxicity, POAAN (Poa annua (POAAN); [17]): 0%
- Post-emergence herbicidal activity, percentage phytotoxicity, POAAN (Poa annua (POAAN); [18]): 0%
- Post-emergence herbicidal activity, percentage phytotoxicity, AVEFA (Avena fatua (AVEFA) [2]; [16]): 13%
- Post-emergence herbicidal activity, percentage phytotoxicity, AVEFA (Avena fatua (AVEFA) [2]; [17]): 80%
- Post-emergence herbicidal activity, percentage phytotoxicity, AVEFA (Avena fatua (AVEFA) [2]; [18]): 70%
- Post-emergence herbicidal activity, percentage phytotoxicity, LOLMU [3, 16]: 48%
- Post-emergence herbicidal activity, percentage phytotoxicity, LOLMU [3, 17]: 90%
- Post-emergence herbicidal activity, percentage phytotoxicity, LOLMU [3, 18]: 83%
- Post-emergence herbicidal activity, percentage phytotoxicity, SETVI (Setaria viridis (SETVI); [16]): 95%
- Post-emergence herbicidal activity, percentage phytotoxicity, SETVI (Setaria viridis (SETVI); [17]): 99%
- Post-emergence herbicidal activity, percentage phytotoxicity, SETVI (Setaria viridis (SETVI); [18]): 99%
- Percentage Phytotoxicity Winter Wheat “Hereward” (Winter Wheat “Hereward”; [13]): 0%
- Percentage Phytotoxicity Winter Wheat “Hereward” (Winter Wheat “Hereward”; [14]): 68%
- Percentage Phytotoxicity Winter Wheat “Hereward” (Winter Wheat “Hereward”; [15]): 0%
- Percentage Phytotoxicity Spring Barley “Harrington” [4, 13]: 1%
- Percentage Phytotoxicity Spring Barley “Harrington” [4, 14]: 75%
- Percentage Phytotoxicity Spring Barley “Harrington” [4, 15]: 5%
- Percentage Phytotoxicity Winter Barley “Suzuka” (Winter Barley “Suzuka”; [13]): 0%
- Percentage Phytotoxicity Winter Barley “Suzuka” (Winter Barley “Suzuka”; [14]): 70%
- Percentage Phytotoxicity Winter Barley “Suzuka” (Winter Barley “Suzuka”; [15]): 15%
- pest or weed control at 250 g/ha [5]: 100%
- pest or weed control at 250 g/ha (Lolium perenne (LOLPE) [6]): 90%
- pest or weed control at 250 g/ha [7]: 90%
- pest or weed control at 250 g/ha (Avena fatua (AVEFA) [8]): 90%
- inhibition at 250 g/ha [9]: 100%
- inhibition at 250 g/ha (Lolium perenne (LOLPE) [10]): 100%
- inhibition at 250 g/ha [11]: 90%
- inhibition at 250 g/ha (Avena fatua (AVEFA) [12]): 80%

From patent US9808003B2, “Herbicidally active 2-(substituted-phenyl)-cyclopentane-1,3-dione compounds and derivatives thereof” (Syngenta Limited, priority 2013, dated 2017)
